One assay deals with pERK in MKN1 cells. The assay can be described thus: pERK inhibition, In-Cell Western (LI-COR Odyssey), MKN1 cells. It counts as cell-based. The settings on record: Homo sapiens, MKN1 or H358 cells (table does not say which), 0.5-1 hour incubation, read-out: IC50 (nM), pERK inhibition. In outline:
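IC50 was fitted from % pERK inhibition, calculated as the GAPDH-normalised pERK signal of each well divided by the vehicle mean. Signal was imaged at 700 and 800 nm after fixation, methanol permeabilisation and dual antibody staining. Before fixation, MKN1 cells had received compound for about 0.5–1 h at 37 °C, top concentration 10 µM, nine 3-fold dilutions.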

Assay [1] addresses T1, recombinant human SOS1 polypeptide (amino acids 560-1049) (Homo sapiens, UniProt Q07889).
T1 construct: corresponding to amino acids 560-1049, expressed in E. Coli; made in house; host or cells: E. coli
T1 sequence (Q07889 560-1049): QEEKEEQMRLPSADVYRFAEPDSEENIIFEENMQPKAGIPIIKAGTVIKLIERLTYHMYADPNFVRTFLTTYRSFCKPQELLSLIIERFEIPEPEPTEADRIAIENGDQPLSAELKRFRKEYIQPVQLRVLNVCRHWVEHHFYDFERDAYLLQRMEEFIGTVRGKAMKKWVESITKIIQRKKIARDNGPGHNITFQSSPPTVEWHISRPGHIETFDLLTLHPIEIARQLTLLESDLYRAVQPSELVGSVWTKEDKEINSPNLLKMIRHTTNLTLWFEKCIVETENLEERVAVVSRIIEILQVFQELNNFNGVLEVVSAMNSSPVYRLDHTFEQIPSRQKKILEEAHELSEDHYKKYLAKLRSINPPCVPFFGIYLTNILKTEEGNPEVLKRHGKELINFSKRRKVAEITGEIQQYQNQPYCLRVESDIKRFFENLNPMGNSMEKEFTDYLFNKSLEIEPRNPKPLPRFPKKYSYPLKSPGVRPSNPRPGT
Put plainly: HTRF displacement assay: inhibition of labeled tracer binding to SOS1. On the technique in general: In TR-FRET formats the signal depends on donor and acceptor labels being close together.

Where [2] appears, read: Table A, Morrison equation for competitive binding.
The mark [3] stands for this setting: Table A1, Morrison equation for competitive binding.

Where two headings read alike, the source gives them in different places.

By IC50 is commonly meant the concentration that inhibits the measured activity by half. The Ki is a measure of affinity in units of concentration, obtained from inhibition or displacement.

Turning to `Cc1c(C#N)cccc1[C@@H](C)Nc1nnc(C)c2cnc(N(C)[C@H]3CCCN(C)C3)cc12` [Example 1-81, 2-methyl-3-((R)-1-((4-methyl-7-(methyl((S)-1-methylpiperidin-3-yl)amino)pyrido[3,4-d]pyridazin-1-yl)amino)ethyl)benzonitrile], the half-maximal inhibitory concentration (IC50) in the assay on pERK in MKN1 cells (MKN-1, Table B) amounted to 62.4 nM. In addition, the Ki in assay [1] (setting [2]) was determined as 0.865 nM.

`Cc1nnc(N[C@H](C)c2cccc(C(F)(F)F)c2F)c2cc(N(C)[C@@H]3CCOC3)ncc12` [Example 1-73, N^1-((R)-1-(2-fluoro-3-(trifluoromethyl)phenyl)ethyl)-N^7,4-dimethyl-N^7-((R)-tetrahydrofuran-3-yl)pyrido[3,4-d]pyridazine-1,7-diamine]: in the assay on pERK in MKN1 cells (MKN-1, Table B), the half-inhibitory concentration (IC50) is 54.8 nM. Besides, in assay [1] (setting [2]), the inhibitory constant (Ki) is 1.16 nM.

Regarding `Cc1nnc(N[C@H](C)c2cccc(C(F)(F)F)c2F)c2cc(N3CCC34CN(C)C4)c(F)cc12` [Example 4-5, (R)-6-fluoro-N-(1-(2-fluoro-3-(trifluoromethyl)phenyl)ethyl)-4-methyl-7-(6-methyl-1,6-diazaspiro[3.3]heptan-1-yl)phthalazin-1-amine], in the assay on pERK in MKN1 cells (MKN-1, Table B), the 50% inhibitory concentration (IC50) came to 103 nM. Moreover, the inhibitory constant (Ki) in assay [1] (setting [2]) came to 0.585 nM.

On to `Cc1c(C#N)cccc1[C@@H](C)Nc1nnc(C)c2c(C)nc(N3CCN(C)C(C)(C)C3)cc12` [Example P-191, (R)-3-(1-((4,5-dimethyl-7-(3,3,4-trimethylpiperazin-1-yl)pyrido[3,4-d]pyridazin-1-yl)amino)ethyl)-2-methylbenzonitrile], for which the half-maximal inhibitory concentration (IC50) in the assay on pERK in MKN1 cells (MKN-1, Table B1) is 26 nM. The Ki in assay [1] (setting [3]) was 0.892 nM.

For the compound `CCN1CC[C@@H](Nc2cc3c(N[C@H](C)c4cccc(C#N)c4C)nnc(C)c3cn2)C1` [Example 1-39, 3-((R)-1-((7-(((R)-1-ethylpyrrolidin-3-yl)amino)-4-methylpyrido[3,4-d]pyridazin-1-yl)amino)ethyl)-2-methylbenzonitrile], in the assay on pERK in MKN1 cells (MKN-1, Table B), the half-maximal inhibitory concentration (IC50) was determined as 126 nM. Moreover, the Ki in assay [1] (setting [2]) stood at 4 nM.

Regarding `CCN1CC[C@H](Nc2cc3c(N[C@H](C)c4cccc(C#N)c4C)nnc(C)c3cn2)C1` [Example 1-38, 3-((R)-1-((7-(((S)-1-ethylpyrrolidin-3-yl)amino)-4-methylpyrido[3,4-d]pyridazin-1-yl)amino)ethyl)-2-methylbenzonitrile], in the assay on pERK in MKN1 cells (MKN-1, Table B), the 50% inhibitory concentration (IC50) is 221 nM. In addition, the Ki in assay [1] (setting [2]) turned out to be 5.6 nM.

`Cc1c(C#N)cccc1[C@@H](C)Nc1nnc(C)c2cnc(N3CC[C@H](NS(C)(=O)=O)C3)cc12` [Example 1-50, N-((S)-1-(1-(((R)-1-(3-cyano-2-methylphenyl)ethyl)amino)-4-methylpyrido[3,4-d]pyridazin-7-yl)pyrrolidin-3-yl)methanesulfonamide]: the half-inhibitory concentration (IC50) with pERK in MKN1 cells (MKN-1, Table B) came out at 602 nM. Moreover, the inhibition constant Ki in assay [1] (setting [2]) is 2.07 nM.

Take `Cc1c(C#N)cccc1[C@@H](C)Nc1nnc(C)c2cnc(N3CCc4c(ncn4C)C3)cc12` [Example P-45, (R)-2-methyl-3-(1-((4-methyl-7-(1-methyl-1,4,6,7-tetrahydro-5H-imidazo[4,5-c]pyridin-5-yl)pyrido[3,4-d]pyridazin-1-yl)amino)ethyl)benzonitrile]: in the assay with pERK in MKN1 cells (MKN-1, Table B1), the half-inhibitory concentration (IC50) worked out at 176 nM. Also, in assay [1] (setting [3]), the Ki was 0.777 nM.

Turning to `Cc1nnc(N[C@H](C)c2cccc(C(F)(F)F)c2F)c2cc(N3CCOCC3)c(F)cc12` [Example 4-6, (R)-6-fluoro-N-(1-(2-fluoro-3-(trifluoromethyl)phenyl)ethyl)-4-methyl-7-morpholinophthalazin-1-amine], the IC50 in the assay with pERK in MKN1 cells (MKN-1, Table B) worked out at 176 nM. Moreover, the Ki in assay [1] (setting [2]) was 12.3 nM.

`Cc1c(C#N)cccc1[C@@H](C)Nc1nnc(C)c2cnc(N3C[C@H]4C[C@@H]3CN4C)cc12` [Example 1-35, 2-methyl-3-((R)-1-((4-methyl-7-((1R,4R)-5-methyl-2,5-diazabicyclo[2.2.1]heptan-2-yl)pyrido[3,4-d]pyridazin-1-yl)amino)ethyl)benzonitrile]: the IC50 in the assay with pERK in MKN1 cells (MKN-1, Table B) turned out to be 18.4 nM. For the same compound, the inhibition constant (Ki) in assay [1] (setting [2]) was 1.19 nM.

Take `Cc1c(C#N)cccc1[C@@H](C)Nc1nnc(C)c2cc(CF)c(N3CCN(C)CC3)cc12` [Example P-186, (R)-3-(1-((6-(fluoromethyl)-4-methyl-7-(4-methylpiperazin-1-yl)phthalazin-1-yl)amino)ethyl)-2-methylbenzonitrile]: the IC50 in the assay with pERK in MKN1 cells (MKN-1, Table B1) was 181 nM. For the same compound, the Ki in assay [1] (setting [3]) amounted to 1.27 nM.

Regarding `COC1(c2cc3c(N[C@H](C)c4cccc(C#N)c4C)nnc(C)c3cc2F)CCOCC1` [Example P-165, (R)-3-(1-((6-fluoro-7-(4-methoxytetrahydro-2H-pyran-4-yl)-4-methylphthalazin-1-yl)amino)ethyl)-2-methylbenzonitrile], the concentration for half-maximal inhibition (IC50) with pERK in MKN1 cells (MKN-1, Table B1) amounted to 352 nM. The inhibitory constant (Ki) in assay [1] (setting [3]) stood at 4.66 nM.

As for `CCN1CCN(c2cc3c(N[C@H](C)c4cccc(C#N)c4C)nnc(C)c3cn2)[C@H](C)C1` [Example 1-15, 3-((R)-1-((7-((R)-4-ethyl-2-methylpiperazin-1-yl)-4-methylpyrido[3,4-d]pyridazin-1-yl)amino)ethyl)-2-methylbenzonitrile], the concentration for half-maximal inhibition (IC50) with pERK in MKN1 cells (MKN-1, Table B) amounted to 63.5 nM. For the same compound, the Ki in assay [1] (setting [2]) was found to be 0.789 nM.

With `Cc1c(C#N)cccc1[C@@H](C)Nc1nnc(C)c2cnc(N(C)[C@@H]3CCN(C)C3)cc12` [Example 1-6, 2-methyl-3-((R)-1-((4-methyl-7-(methyl((R)-1-methylpyrrolidin-3-yl)amino)pyrido[3,4-d]pyridazin-1-yl)amino)ethyl)benzonitrile], the IC50 in the assay with pERK in MKN1 cells (MKN-1, Table B) turned out to be 41.6 nM. For the same compound, the Ki in assay [1] (setting [2]) worked out at 1.56 nM.

On to `Cc1nnc(N[C@H](C)c2cccc(C(F)F)c2F)c2cc(N3CCC34COC4)ncc12` [Example P-233, (R)-N-(1-(3-(difluoromethyl)-2-fluorophenyl)ethyl)-4-methyl-7-(6-oxa-1-azaspiro[3.3]heptan-1-yl)pyrido[3,4-d]pyridazin-1-amine], for which the IC50 in the assay on pERK in MKN1 cells (MKN-1, Table B1) is 18.8 nM. Besides, the Ki in assay [1] (setting [3]) is 2.75 nM.

In the case of `COC1(c2cc3c(N[C@H](C)c4cccc(C#N)c4C)nnc(C)c3cn2)CCN(C)CC1` [Example P-69, (R)-3-(1-((7-(4-methoxy-1-methylpiperidin-4-yl)-4-methylpyrido[3,4-d]pyridazin-1-yl)amino)ethyl)-2-methylbenzonitrile], the IC50 in the assay with pERK in MKN1 cells (MKN-1, Table B1) worked out at 849 nM. In addition, in assay [1] (setting [3]), the Ki is 51.8 nM.

As for `Cc1c(C#N)cccc1[C@@H](C)Nc1nnc(C)c2cc(Cl)c(N3CCS(=O)(=O)CC3)cc12` [Example P-197, (R)-3-(1-((6-chloro-7-(1,1-dioxidothiomorpholino)-4-methylphthalazin-1-yl)amino)ethyl)-2-methylbenzonitrile], the 50% inhibitory concentration (IC50) in the assay with pERK in MKN1 cells (MKN-1, Table B1) was 204 nM. For the same compound, in assay [1] (setting [3]), the inhibitory constant (Ki) was 8.97 nM.

As for `Cc1nnc(N[C@H](C)c2cccc(C(F)(F)F)c2F)c2cc(N(C)C3CCN(C)CC3)ncc12` [Example 1-83, (R)-N^1-(1-(2-fluoro-3-(trifluoromethyl)phenyl)ethyl)-N^7,4-dimethyl-N^7-(1-methylpiperidin-4-yl)pyrido[3,4-d]pyridazine-1,7-diamine], the IC50 in the assay with pERK in MKN1 cells (MKN-1, Table B) was 82.8 nM. In addition, the Ki in assay [1] (setting [2]) came out at 0.788 nM.

In the case of `Cc1c(C#N)cccc1[C@@H](C)Nc1nnc(C)c2cnc(N3CC4(C3)CN(C(C)C)C4)cc12` [Example 1-62, (R)-3-(1-((7-(6-isopropyl-2,6-diazaspiro[3.3]heptan-2-yl)-4-methylpyrido[3,4-d]pyridazin-1-yl)amino)ethyl)-2-methylbenzonitrile], in the assay on pERK in MKN1 cells (MKN-1, Table B), the IC50 was found to be 37.6 nM. Also, in assay [1] (setting [2]), the Ki stood at 0.545 nM.

Source of the values: US20250059182A1, “SOS1 INHIBITORS” (Mirati Therapeutics, Inc., priority 2021, published 2025).
